The text below walks through data of patent publication US9034309B2, “Biocidal polymers” (Wisconsin Alumni Research Foundation, priority 2003, dated 2015).

Test [1] deals with E. coli JM109. The test is described as follows: microbe, parasite or virus in culture. The conditions noted are these: for MIC E. coli JM109: Table 3, unit not given (Table 1: μg/mL), median of at least three experiments. It is filed as cell-based, Escherichia coli. As to the method: (§1) Minimal Inhibitory Concentration (MIC): Stock solutions of polymers (5.00 μL at 2 mg/mL, prepared as described above), commercial synthetic (Ala^8,3,18)-1-magainin-2-amide (Sigma, dissolved in Millipore water to 1 mg/mL, 10.0 μL, as positive control), or solvent blank (5.00 μL) were diluted into brain-heart infusion (BHI) broth in row A of 96-well sterile assay plates (B-D Falcon 35-3075, Fisher Scientific) and seven serial twofold dilutions were performed to give 50 μL of peptide solution (at double the final assay concentration) in each well. Bacterial strains (Escherichia coli JM1O9, Bacillus subtilis BR151,^24 Staphylococcus aureus 5332 (a clinical MRSA isolate from the Weisblum laboratory strain collection), and Enterococcus faecium A436^25) were grown on 2% bacteriological agar in BHI medium. Cells from these cultures were suspended in BHI broth at a concentration of approximately 10^6 colony-forming units (CFU)/mL, and 50 μL of cell suspension was added to each well to give a total of 100 μL in each well.
(§2) Plates were then incubated at 37° C. for 6 h. Bacterial growth gives rise to turbidity and light scattering, which was detected by measuring 0D650 using a Molecular Devices Emax microplate reader connected to a Windows computer running SOFTmax v.2.34. OD650 values from two simultaneous experiments were averaged. […] If an even number of experiments was performed and the two median values were not identical, the geometric mean is reported as the MIC.

The test system of test [2] is E. faecium A436 (vancomycin-resistant). Put plainly: microbe, parasite or virus in culture. It counts as cell-based, Enterococcus faecium. The conditions noted are these: for MIC E. faecium A436: Table 3, unit not given (Table 1: μg/mL), median of at least three experiments. How it is done: as §1, §2
For test [3], the system named is S. aureus 5332 (clinical MRSA isolate). Put plainly: microbe, parasite or virus in culture. The conditions noted are these: for MIC S. aureus 5332: Table 3, unit not given (Table 1: μg/mL), median of at least three experiments. It counts as cell-based, Staphylococcus aureus. How it is done:
as §1, §2

Test [4] deals with E. coli JM109. The test is described as follows: Minimal Bactericidal Concentration (MBC). It counts as cell-based, Escherichia coli. As to conditions: Table 2, unit not given; lowest well concentration showing no colonies (>99% killing); plates incubated 4 d. How it is done: Minimal Bactericidal Concentration (MBC): To determine cell viability, 10 μL from each of the MIC, 2×MIC, and 4×MIC wells (up to the maximum concentration of […]) was diluted 100-fold. Of this, 100 μL (containing at most 5×10^2 CFU) was plated on 2% bacteriological agar in BHI medium and incubated at 37° C. overnight (for B. subtilis) or for 4 d (for E. coli, because no growth was seen after 10 h; colonies appeared on some plates after extended incubation). The absence of colonies was considered indicative of >99% bacterial killing, and the lowest assay well concentration showing no colonies is reported as the MBC.

Test [5] has as its system B. subtilis BR151. The test is described as follows: microbe, parasite or virus in culture. It is filed as cell-based, Bacillus subtilis. As to conditions: for MIC B. subtilis BR151: Table 3, unit not given (Table 1: μg/mL), median of at least three experiments. How it is done:
as §1, §2

Test [6] concerns E. Coli, B. subtilis, methicillin-resistant S. aureus, vancomycin-resistant E. faecium. Put plainly: BHI growth inhibition assay, statements over all four strains. It is filed as cell-based. The conditions noted are these: BHI broth, up to 50 μg/mL. How it is done: as §1
Plates were then incubated at 37° C. for 6 h. Bacterial growth gives rise to turbidity and light scattering, which was detected by measuring 0D650 using a Molecular Devices Emax microplate reader connected to a Windows computer running SOFTmax v.2.34. OD650 values from two simultaneous experiments were averaged. […]

The structures appear in SMILES notation. ≈ marks a conversion by molar mass, not a printed value. Where a SMILES comes first, the peptide text is derived from it.

On to `CC[C@H](C)[C@H](NC(=O)CN)C(=O)NCC(=O)N[C@@H](CCCCN)C(=O)N[C@@H](Cc1ccccc1)C(=O)N[C@@H](CC(C)C)C(=O)N[C@@H](Cc1c[nH]cn1)C(=O)N[C@@H](C)C(=O)N[C@@H](C)C(=O)N[C@@H](CCCCN)C(=O)N[C@@H](CCCCN)C(=O)N[C@@H](Cc1ccccc1)C(=O)N[C@@H](C)C(=O)N[C@@H](CCCCN)C(=O)N[C@@H](C)C(=O)N[C@@H](Cc1ccccc1)C(=O)N[C@H](C(=O)N[C@@H](C)C(=O)N[C@@H](CCC(=O)O)C(=O)N[C@H](C(=O)N[C@@H](CCSC)C(=O)N[C@@H](CC(N)=O)C(=O)N[C@@H](CO)C(N)=O)[C@@H](C)CC)C(C)C` [(Ala^8,3,18)-magainin-2-amide] (H-GIGKFLHAAKKFAKAFVAEIMNS-NH2; N-terminus assumed), for which, in test [1] (JM109, 6 h), the “Minimum Inhibitory Concentrations (MIC's) E. coli JM109” value is 12.5 µg/mL. Further, the MIC E. coli JM109 in test [1] (BHI broth, 37° C., 6 h) was 12.5 µg/mL (≈ 5.04 µM). Moreover, the “Minimum Inhibitory Concentrations (MIC's) E. faecium A436” value in test [2] (A436 (vancomycin-resistant, 6 h)) stood at 3.2 µg/mL. The compound also yielded an MIC E. faecium A436 in test [2] (BHI broth, 37° C., 6 h) of 3.2 µg/mL (≈ 1.29 µM). In test [3] (5332 (clinical isolate, 6 h)), the “Minimum Inhibitory Concentrations (MIC's) S. aureus 5332” value stood at 12.5 µg/mL. Also, in test [3] (BHI broth, 37° C., 6 h), the MIC S. aureus 5332 is 12.5 µg/mL (≈ 5.04 µM). The “MBC E. coli JM109” value in test [4] is given as 25. Besides, the “Minimum Inhibitory Concentrations (MIC's) B. subtilis BR151” value in test [5] (BR151, 6 h) is 6.3 µg/mL. In test [5] (BHI broth, 37° C., 6 h), the MIC B. subtilis BR151 was found to be 6.3 µg/mL (≈ 2.54 µM).
For `C=Cc1ccc(CN(C)C)cc1` [(1) (monomer), 4-(dimethylaminomethyl)-styrene], the MIC in test [1] (Escherichia coli, JM109, BHI broth, 37° C., 6 h, tested up to 50 μg/mL, conservative estimates, read-out: Minimum Inhibitory Concentrations (MIC's) E. coli JM109) was above 50 µg/mL; in test [2] (Enterococcus faecium, BHI broth, 37° C., 6 h, tested up to 50 μg/mL, conservative estimates, read-out: Minimum Inhibitory Concentrations (MIC's) E. faecium A436) it was above 50 µg/mL; in test [3] (Staphylococcus aureus, MRSA, BHI broth, 37° C., 6 h, tested up to 50 μg/mL, conservative estimates, read-out: Minimum Inhibitory Concentrations (MIC's) S. aureus 5332) it was above 50 µg/mL; in test [5] (Bacillus subtilis, BR151, BHI broth, 37° C., 6 h, tested up to 50 μg/mL, conservative estimates, read-out: Minimum Inhibitory Concentrations (MIC's) B. subtilis BR151), above 50 µg/mL. In addition, in test [1] (BHI broth, 37° C., 6 h), the MIC E. coli JM109 was above 50 µg/mL. In test [2] (BHI broth, 37° C., 6 h), this compound had an MIC E. faecium A436 above 50 µg/mL. For the same compound, the “growth inhibition / inhibitory activity (in words)” value in test [6] is “no growth inhibition”. Further, the MIC S. aureus 5332 in test [3] (BHI broth, 37° C., 6 h) is above 50 µg/mL. Besides, the MIC B. subtilis BR151 in test [5] (BHI broth, 37° C., 6 h) is above 50 µg/mL.
